Source: US10358446B2, “Bruton's tyrosine kinase inhibitors” (Zibo Biopolar Changsheng Pharmaceutical Co. Ltd., priority 2015, dated 2019)

Target: BTK (Homo sapiens (Human), UniProt Q06187)
Test: Btk kinase assay (HTRF)
Type: biochemical
Details: [ATP]=80 μM, BTK=3.4 nM; read-out: BTK Inhibition
Method: Btk kinase activity was determined using a homogenous time resolved fluorescence (HTRF) methodology. Measurements were performed in a reaction volume of 15 μL using 384-well assay plates. Kinase enzyme, inhibitor, ATP and 1 μM peptide substrate were incubated in a reaction buffer compose of Hepes 50 mM (pH7.0), NaN3 0.02%, BSA 0.01%, Orthocanadate 0.1 mM. After one hour, the kinase reaction was quenched by the addition of […] antibody and XL-665 in 1× Detection buffer containing 60 mM EDTA (Cisbio), and the mixture was allowed to incubate for one hour. The HTRF signal was measured on a multimode plate reader (EnVision® Multilabel Reader, Perkin Elmer) with an excitation wavelength (λEx) of 330 nm and detection wavelengths (λEm) of 615 and 665 nrm. Activity was determined by the ratio of the fluorescence at 665 nm to that at 615 nm. For each compound, enzyme activity as measured at various concentrations of compound, Negative control reactions were performed in the absence of inhibitor in two replicates and eight no enzyme controls were used to determine baseline fluorescence levels. IC50s were obtained according to the equation: […] For BTK assay, [ATP]=80 μM, BTK=3.4 nM.

Sequence of BTK (Q06187 whole entry, species assumed): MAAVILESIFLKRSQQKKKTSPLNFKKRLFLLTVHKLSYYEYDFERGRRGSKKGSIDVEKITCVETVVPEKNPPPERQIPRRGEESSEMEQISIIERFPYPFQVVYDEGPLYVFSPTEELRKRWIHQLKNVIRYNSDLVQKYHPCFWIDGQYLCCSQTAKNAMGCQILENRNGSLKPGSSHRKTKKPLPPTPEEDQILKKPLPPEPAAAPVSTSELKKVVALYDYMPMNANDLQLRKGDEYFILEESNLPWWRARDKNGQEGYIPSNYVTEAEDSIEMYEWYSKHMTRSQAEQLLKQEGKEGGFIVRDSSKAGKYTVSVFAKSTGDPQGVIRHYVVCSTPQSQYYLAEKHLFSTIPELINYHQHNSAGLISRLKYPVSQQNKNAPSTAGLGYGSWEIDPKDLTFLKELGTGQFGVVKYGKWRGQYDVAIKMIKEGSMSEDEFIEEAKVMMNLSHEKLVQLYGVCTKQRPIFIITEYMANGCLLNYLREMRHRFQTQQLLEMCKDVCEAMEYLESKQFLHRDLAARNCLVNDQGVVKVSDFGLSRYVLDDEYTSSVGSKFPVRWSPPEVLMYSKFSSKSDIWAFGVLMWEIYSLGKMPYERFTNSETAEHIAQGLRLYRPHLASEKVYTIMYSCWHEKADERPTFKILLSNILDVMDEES

Compound	IC50
C=CC(=O)N1CC[C@@H](n2c(=O)n(-c3ccc(Oc4ccc(OC)cc4)c(Cl)c3)c3cnccc32)C1 [Example 42, (R)-1-(1-acryloylpyrrolidin-3-yl)-3-(3-chloro-4-(4-methoxyphenoxy)phenyl)-1H-imidazo[4,5-c]pyridine-2(3H)-one]	10 to 100 nM
C=CC(=O)N1CC[C@@H](n2c(=O)n(-c3ccc(Oc4ccc(C(F)(F)F)cc4)c(Cl)c3)c3cnccc32)C1 [Example 43, (R)-1-(1-acryloylpyrrolidin-3-yl)-3-(3-chloro-4-(4-(trifluoromethyl)phenoxy)phenyl)-1H-imidazo[4,5-c]pyridin-2(3H)-one]	100 to 1000 nM
C=CC(=O)N1CC[C@@H](n2c(=O)n(-c3ccc(Oc4ccc(Cl)c(Cl)c4)c(Cl)c3)c3cnccc32)C1 [Example 44, (R)-1-(1-acryloylpyrrolidin-3-yl)-3-(3-chloro-4-(3,4-dichlorophenoxy)phenyl)-1H-imidazo[4,5-c]pyridin-2(3H)-one]	10 to 100 nM
C=CC(=O)N1CC[C@@H](n2c(=O)n(-c3ccc(Oc4cccc(OC)c4)c(Cl)c3)c3cnccc32)C1 [Example 45, (R)-1-(1-acryloylpyrrolidin-3-yl)-3-(3-chloro-4-(3-methoxyphenoxy)phenyl)-1H-imidazo[4,5-c]pyridin-2(3H)-one]	10 to 100 nM
C=CC(=O)Nc1cccc(-n2c(=O)n(-c3ccc(Oc4cccc(OC(C)C)c4)c(C)c3)c3cnccc32)c1 [Example 46, N-(3-(3-(4-(3-isopropoxyphenoxy)-3-methylphenyl)-2-oxo-2,3-dihydro-1H-imidazo[4,5-c]pyridin-1-yl)phenyl)acrylamide]	1000 to 10000 nM
C=CC(=O)Nc1cccc(-n2c(=O)n(-c3ccc(Oc4cccc(C)c4)c(C)c3)c3cnccc32)c1 [Example 47, N-(3-(3-(3-methyl-4-(m-tolyloxy)phenyl)-2-oxo-2,3-dihydro-1H-imidazo[4,5-c]pyridin-1-yl)phenyl) acrylamide]	1000 to 10000 nM
C=CC(=O)Nc1cccc(-n2c(=O)n(-c3ccc(Oc4cccc(OC(C)C)c4)c(F)c3)c3cnccc32)c1 [Example 48, N-(3-(3-(3-fluoro-4-(3-isopropoxyphenoxy)phenyl)-2-oxo-2,3-dihydro-1H-imidazo[4,5-c]pyridin-1-yl)phenyl)acrylamide]	10 to 100 nM
C=CC(=O)Nc1cccc(-n2c(=O)n(-c3ccc(Oc4cccc(C)c4)c(F)c3)c3cnccc32)c1 [Example 49, N-(3-(3-(3-fluoro-4-(m-tolyloxy)phenyl)-2-oxo-2,3-dihydro-1H-imidazo[4,5-c]pyridin-1-yl)phenyl)acrylamide]	10 to 100 nM
C=CC(=O)Nc1cccc(-n2c(=O)n(-c3ccc(Oc4cccc(Cl)c4)c(F)c3)c3cnccc32)c1 [Example 50]	100 to 1000 nM
C=CC(=O)N1CC[C@@H](n2c(=O)n(-c3ccc(Oc4cccc(OC(C)C)c4)c(F)c3)c3cnccc32)C1 [Example 52, (R)-1-(1-acryloylpyrrolidin-3-yl)-3-(3-fluoro-4-(3-isopropoxyphenoxy)phenyl)-1H-imidazo[4,5-c]pyridin-2(3H)-one]	100 to 1000 nM
C=CC(=O)N1CC[C@@H](n2c(=O)n(-c3ccc(Oc4cccc(OC)c4)c(F)c3)c3cnccc32)C1 [Example 53, (R)-1-(1-acryloylpyrrolidin-3-yl)-3-(3-fluoro-4-(3-methoxyphenoxy)phenyl)-1H-imidazo[4,5-c]pyridin-2(3H)-one]	10 to 100 nM
C=CC(=O)Nc1cccc(-n2c(=O)n(-c3ccc(Oc4cccc(Cl)c4F)cc3)c3cnccc32)c1 [Example 54, N-(3-(3-(4-(3-chloro-2-fluorophenoxy)phenyl)-2-oxo-2,3-dihydro-1H-imidazo[4,5-c]pyridin-1-yl)phenyl)acrylamide]	10 to 100 nM
C=CC(=O)N1CC[C@@H](n2c(=O)n(-c3cccc(Oc4cccc(F)c4C)c3)c3cnccc32)C1 [Example 55, (R)-1-(1-acryloylpyrrolidin-3-yl)-3-(3-(3-fluoro-2-methylphenoxy)phenyl)-1H-imidazo[4,5-c]pyridin-2(3H)-one]	10 to 100 nM
C=CC(=O)N1CC[C@@H](n2c(=O)n(-c3cccc(Oc4cccc(OC5CC5)c4)c3)c3cnccc32)C1 [Example 56, (R)-1-(1-acryloylpyrrolidin-3-yl)-3-(3-(3-cyclopropoxyphenoxy)phenyl)-1H-imidazo[4,5-c]pyridin-2(3H)-one]	10 to 100 nM
C=CC(=O)N1CCC[C@@H](n2c(=O)n(-c3ccc(Oc4cccc(F)c4C)cc3)c3cnccc32)C1 [Example 57, (R)-1-(1-acryloylpiperidin-3-yl)-3-(4-(3-fluoro-2-methylphenoxy)phenyl)-1H-imidazo[4,5-c]pyridin-2(3H)-one]	10 to 100 nM
C=CC(=O)N1CCC[C@@H](n2c(=O)n(-c3ccc(Oc4cccc(C)c4C)cc3)c3cnccc32)C1 [Example 58, (R)-1-(1-acryloylpiperidin-3-yl)-3-(4-(2,3-dimethylphenoxy)phenyl)-1H-imidazo[4,5-c]pyridin-2(3H)-one]	10 to 100 nM
C=CC(=O)N1CCC[C@@H](n2c(=O)n(-c3ccc(Oc4cccc(Cl)c4F)cc3)c3cnccc32)C1 [Example 59, (R)-1-(1-acryloylpiperidin-3-yl)-3-(4-(3-chloro-2-fluorophenoxy)phenyl)-1H-imidazo[4,5-c]pyridin-2(3H)-one]	10 to 100 nM
C=CC(=O)N1CCC[C@@H](n2c(=O)n(-c3ccc(Oc4cccc(F)c4F)cc3)c3cnccc32)C1 [Example 61, (R)-1-(1-acryloylpiperidin-3-yl)-3-(4-(2,3-difluorophenoxy)phenyl)-1H-imidazo[4,5-c]pyridin-2(3H)-one]	10 to 100 nM
C=CC(=O)Nc1cccc(-n2c(=O)n(-c3ccc(Oc4cccc(OC)c4)c(C)c3)c3cnccc32)c1 [Example 62, N-(3-(3-(4-(3-methoxyphenoxy)-3-methylphenyl)-2-oxo-2,3-dihydro-1H-imidazo[4,5-c]pyridin-1-yl)phenyl)acrylamide]	10 to 100 nM

Other lines, results leading:

IC50	Compound
10 to 100 nM	C=CC(=O)N1CC[C@@H](n2c(=O)n(-c3ccc(Oc4cccc(Cl)c4OC)cc3)c3cnccc32)C1 [Example 63, (R)-1-(1-acryloylpyrrolidin-3-yl)-3-(4-(3-chloro-2-methoxyphenoxy)phenyl)-1H-imidazo[4,5-c]pyridine-2(3H)-one]
100 to 1000 nM	C=CC(=O)N1CCC[C@@H](n2c(=O)n(-c3ccc(Oc4cccc(Cl)c4OC)cc3)c3cnccc32)C1 [Example 64, (R)-1-(1-acryloylpiperidin-3-yl)-3-(4-(3-chloro-2-methoxyphenoxy)phenyl)-1H-imidazo[4,5-c]pyridin-2(3H)-one]
1000 to 10000 nM	C=CC(=O)N1CC[C@@H](n2c(=O)n(-c3ccc(Oc4ccccc4)cc3)c3c(C#N)nccc32)C1 [Example 65]
10 to 100 nM	C=CC(=O)N1CCC[C@@H](n2c(=O)n(-c3ccc(Oc4cccc(C)c4OC)cc3)c3cnccc32)C1 [Example 66, (R)-1-(1-acryloylpiperidin-3-yl)-3-(4-(2-methoxy-3-methylphenoxy)phenyl)-1H-imidazo[4,5-c] pyridin-2(3H)-one]
10 to 100 nM	C=CC(=O)N1CC[C@@H](n2c(=O)n(-c3ccc(Oc4cccc(C)c4OC)cc3)c3cnccc32)C1 [Example 67, (R)-1-(1-acryloylpyrrolidin-3-yl)-3-(4-(2-methoxy-3-methylphenoxy)phenyl)-1H-imidazo[4,5-c]pyridin-2(3H)-one]
100 to 1000 nM	C=CC(=O)N1CC[C@@H](n2c(=O)n(-c3ccc(Oc4cccnc4)cc3)c3cnccc32)C1 [Example 68, (R)-1-(1-acryloylpyrrolidin-3-yl)-3-(4-(pyridin-3-yloxy)phenyl)-1H-imidazo[4,5-c]pyridin-2(3H)-one]
10 to 100 nM	C=CC(=O)Nc1cccc(-n2c(=O)n(-c3ccc(Oc4cccc(Cl)c4)cc3)c3cnccc32)c1 [Example 69, N-(3-(3-(4-(3-chlorophenoxy)phenyl)-2-oxo-2,3-dihydro-1H-imidazo[4,5-c]pyridin-1-yl)phenyl)acrylamide]
1000 to 10000 nM	C=CC(=O)Nc1cccc(-n2c(=O)n(-c3ccc(Oc4cccc(OC(F)(F)F)c4)cc3)c3cnccc32)c1 [Example 70, N-(3-(2-oxo-3-(4-(3-(trifluoromethoxy)phenoxy)phenyl)-2,3-dihydro-1H-imidazo[4,5-c]pyridin-1-yl)phenyl)acrylamide]
100 to 1000 nM	C=CC(=O)Nc1cccc(-n2c(=O)n(-c3ccc(Oc4cc(Cl)cc(OC)c4)cc3)c3cnccc32)c1 [Example 71, N-(3-(3-(4-(3-chloro-5-methoxyphenoxy)phenyl)-2-oxo-2,3-dihydro-1H-imidazo[4,5-c]pyridin-1-yl)phenyl)acrylamide]
10 to 100 nM	C=CC(=O)N1CC[C@@H](n2c(=O)n(-c3ccc(Oc4cccc(Cl)c4)cc3)c3cnccc32)C1 [Example 72, (R)-1-(1-acryloylpyrrolidin-3-yl)-3-(4-(3-chlorophenoxy)phenyl)-1H-imidazo[4,5-c]pyridin-2(3H)-one]
10 to 100 nM	C=CC(=O)Nc1cccc(-n2c(=O)n(-c3ccc(Oc4ccccc4)c(Cl)c3)c3cnccc32)c1 [Example 73, N-(3-(3-(3-chloro-4-phenoxyphenyl)-2-oxo-2,3-dihydro-1H-imidazo[4,5-c]pyridin-1-yl)phenyl)acrylamide]
10 to 100 nM	C=CC(=O)Nc1cccc(-n2c(=O)n(-c3cccc(Oc4cccc(Cl)c4)c3)c3cnccc32)c1 [Example 74, N-(3-(3-(3-(3-chlorophenoxy)phenyl)-2-oxo-2,3-dihydro-1H-imidazo[4,5-c]pyridin-1-yl)phenyl)acrylamide]
